Measured values reported in ChEMBL document CHEMBL5390204, “Persephacin Is a Broad-Spectrum Antifungal Aureobasidin Metabolite That Overcomes Intrinsic Resistance in Aspergillus fumigatus” (J Nat Prod, 2023).
In brackets after ≈: the same amount, converted by molar mass. Numbered stars: 1 amine (or outer) side, 2 acyl side, 3 side chain; on linkers, the order of the positions; unused ones are H or OH. Square brackets hold non-standard residues; d marks the D form. Peptide text beside a SMILES is read from it. X1 = CC[C@@H](C)[C@@H](O[*:1])C(=O)[*:2]; NMeVal(β-OH) = CN[C@H](C(=O)O)C(C)(C)O; NMeF = CN[C@@H](Cc1ccccc1)C(=O)O; aIle = CC[C@@H](C)[C@H](N)C(=O)O; NMeV = CN[C@H](C(=O)O)C(C)C

Experiments:
Candida parapsilosis [1] = experiment: Antifungal activity against Candida parapsilosis ATCC 22019 (Y-12969) assessed as reduction in fungal growth incubated for 48 hrs by microplate reader analysis; format: functional; settings: Lodderomyces parapsilosis
Candida albicans [2] = experiment: Antifungal activity against Candida albicans ATCC 10231 assessed as reduction in fungal growth incubated for 48 hrs by microplate reader analysis; format: functional
Candida albicans [3] = experiment: Antifungal activity against Candida albicans SC5314 assessed as reduction in fungal growth incubated for 48 hrs by microplate reader analysis; format: functional
Pichia kudriavzevii [4] = experiment: Antifungal activity against Candida krusei ATCC 6258 (Y-7179) assessed as reduction in fungal growth incubated for 48 hrs by microplate reader analysis; format: functional
Candida tropicalis [5] = experiment: Antifungal activity against Candida tropicalis ATCC750 (Y-12699) assessed as reduction in fungal growth incubated for 48 hrs by microplate reader analysis; format: functional
Cryptococcus neoformans [6] = experiment: Antifungal activity against Cryptococcus neoformans H99 assessed as reduction in fungal growth incubated for 48 hrs by microplate reader analysis; format: functional
Aspergillus fumigatus [7] = experiment: Antifungal activity against Aspergillus fumigatus MYA 3627 assessed as reduction in fungal growth incubated for 48 hrs by microplate reader analysis; format: functional
Aspergillus fumigatus [8] = experiment: Antifungal activity against Aspergillus fumigatus NRRL6113 assessed as reduction in fungal growth incubated for 48 hrs by microplate reader analysis; format: functional
Aspergillus fumigatus [9] = experiment: Antifungal activity against Aspergillus fumigatus NRRL5109 assessed as reduction in fungal growth incubated for 48 hrs by microplate reader analysis; format: functional
Aspergillus flavus [10] = experiment: Antifungal activity against Aspergillus flavus NRRL485 assessed as reduction in fungal growth incubated for 48 hrs by microplate reader analysis; format: functional
Aspergillus niger [11] = experiment: Antifungal activity against Aspergillus niger FGSC A732 assessed as reduction in fungal growth incubated for 48 hrs by microplate reader analysis; format: functional
Aspergillus terreus [12] = experiment: Antifungal activity against Aspergillus terreus 191A6 assessed as reduction in fungal growth incubated for 48 hrs by microplate reader analysis; format: functional
Curvularia lunata [13] = experiment: Antifungal activity against Curvularia lunata NRRL6409 assessed as reduction in fungal growth incubated for 48 hrs by microplate reader analysis; format: functional
Rhizopus arrhizus [14] = experiment: Antifungal activity against Rhizopus oryzae FGSC 9543 assessed as reduction in fungal growth incubated for 48 hrs by microplate reader analysis; format: functional
Mucor circinelloides [15] = experiment: Antifungal activity against Mucor circinelloides 235C7 assessed as reduction in fungal growth incubated for 48 hrs by microplate reader analysis; format: functional
Fusarium solani [16] = experiment: Antifungal activity against Fusarium solani 243G2 assessed as reduction in fungal growth incubated for 48 hrs by microplate reader analysis; format: functional
Paecilomyces lilacinus [17] = experiment: Antifungal activity against Paecilomyces lilacinus 165E10 assessed as reduction in fungal growth incubated for 48 hrs by microplate reader analysis; format: functional; settings: Purpureocillium lilacinum
Hamigera insecticola [18] = experiment: Antifungal activity against Hamigera insecticola NRRL35442 assessed as reduction in fungal growth incubated for 48 hrs by microplate reader analysis; format: functional
Candida albicans [19] = experiment: Antifungal activity against Candida albicans SC5314 assessed as reduction in fungal viability incubated for 48 hrs by microplate reader analysis; format: functional
Candida albicans [20] = experiment: Antifungal activity against Candida albicans ATCC 10231 assessed as reduction in fungal viability incubated for 48 hrs by microplate reader analysis; format: functional
Candida parapsilosis [21] = experiment: Antifungal activity against Candida parapsilosis ATCC 22019 (Y-12969) assessed as reduction in fungal viability incubated for 48 hrs by microplate reader analysis; format: functional
Candida tropicalis [22] = experiment: Antifungal activity against Candida tropicalis ATCC750 (Y-12699) assessed as reduction in fungal viability incubated for 48 hrs by microplate reader analysis; format: functional
Pichia kudriavzevii [23] = experiment: Antifungal activity against Candida krusei ATCC 6258 (Y-7179) assessed as reduction in fungal viability incubated for 48 hrs by microplate reader analysis; format: functional
Cryptococcus neoformans [24] = experiment: Antifungal activity against Cryptococcus neoformans H99 assessed as reduction in fungal viability incubated for 48 hrs by microplate reader analysis; format: functional
Aspergillus fumigatus [25] = experiment: Antifungal activity against Aspergillus fumigatus MYA 3627 assessed as reduction in fungal viability incubated for 48 hrs by microplate reader analysis; format: functional
Aspergillus fumigatus [26] = experiment: Antifungal activity against Aspergillus fumigatus NRRL6113 assessed as reduction in fungal viability incubated for 48 hrs by microplate reader analysis; format: functional
Aspergillus fumigatus [27] = experiment: Antifungal activity against Aspergillus fumigatus NRRL5109 assessed as reduction in fungal viability incubated for 48 hrs by microplate reader analysis; format: functional
Aspergillus flavus [28] = experiment: Antifungal activity against Aspergillus flavus NRRL485 assessed as reduction in fungal viability incubated for 48 hrs by microplate reader analysis; format: functional
Aspergillus niger [29] = experiment: Antifungal activity against Aspergillus niger FGSC A732 assessed as reduction in fungal viability incubated for 48 hrs by microplate reader analysis; format: functional
Aspergillus terreus [30] = experiment: Antifungal activity against Aspergillus terreus 191A6 assessed as reduction in fungal viability incubated for 48 hrs by microplate reader analysis; format: functional
Curvularia lunata [31] = experiment: Antifungal activity against Curvularia lunata NRRL6409 assessed as reduction in fungal viability incubated for 48 hrs by microplate reader analysis; format: functional
Rhizopus arrhizus [32] = experiment: Antifungal activity against Rhizopus oryzae FGSC 9543 assessed as reduction in fungal viability incubated for 48 hrs by microplate reader analysis; format: functional
Mucor circinelloides [33] = experiment: Antifungal activity against Mucor circinelloides 235C7 assessed as reduction in fungal viability incubated for 48 hrs by microplate reader analysis; format: functional
Fusarium solani [34] = experiment: Antifungal activity against Fusarium solani 243G2 assessed as reduction in fungal viability incubated for 48 hrs by microplate reader analysis; format: functional
Paecilomyces lilacinus [35] = experiment: Antifungal activity against Paecilomyces lilacinus 165E10 assessed as reduction in fungal viability incubated for 48 hrs by microplate reader analysis; format: functional, Purpureocillium lilacinum
Hamigera insecticola [36] = experiment: Antifungal activity against Hamigera insecticola NRRL35442 assessed as reduction in fungal viability incubated for 48 hrs by microplate reader analysis; format: functional

CC[C@@H](C)[C@@H]1NC(=O)[C@@H]2CCCN2C(=O)[C@H](Cc2ccccc2)N(C)C(=O)[C@H](Cc2ccccc2)NC(=O)[C@H](C(C)C)N(C)C(=O)[C@@H]([C@H](C)CC)OC(=O)[C@H](C(C)(C)O)N(C)C(=O)[C@H](CC(C)C)NC(=O)[C@H](C(C)C)N(C)C1=O [AUREOBASIDIN A] (cyclo(F[NMeF]P[aIle][NMeV]L[NMeVal(β-OH)][X1][NMeV]))
MFC (Candida parapsilosis [1]): 2.5 µM (≈ 2.75 µg/mL)
MIC80 (Candida parapsilosis [1]): 1.3 µM (≈ 1.43 µg/mL)
MFC (Candida albicans [2]): 2.5 µM (≈ 2.75 µg/mL)
MIC80 (Candida albicans [2]): 0.6 µM (≈ 0.661 µg/mL)
MFC (Candida albicans [3]): 0.6 µM (≈ 0.661 µg/mL)
MIC80 (Candida albicans [3]): 0.3 µM (≈ 0.33 µg/mL)
MFC (Pichia kudriavzevii [4]): 2.5 µM (≈ 2.75 µg/mL)
MIC80 (Pichia kudriavzevii [4]): 1.3 µM (≈ 1.43 µg/mL)
MFC (Candida tropicalis [5]): 0.6 µM (≈ 0.661 µg/mL)
MIC80 (Candida tropicalis [5]): 0.6 µM (≈ 0.661 µg/mL)
MFC (Cryptococcus neoformans [6]): 2.5 µM (≈ 2.75 µg/mL)
MIC80 (Cryptococcus neoformans [6]): 2.5 µM (≈ 2.75 µg/mL)
MFC (Aspergillus fumigatus [7]): > 10 µM
MIC80 (Aspergillus fumigatus [7]): > 10 µM
MFC (Aspergillus fumigatus [8]): > 10 µM
MIC80 (Aspergillus fumigatus [8]): > 10 µM
MFC (Aspergillus fumigatus [9]): > 10 µM
MIC80 (Aspergillus fumigatus [9]): > 10 µM
MFC (Aspergillus flavus [10]): > 10 µM
MIC80 (Aspergillus flavus [10]): > 10 µM
MFC (Aspergillus niger [11]): > 10 µM
MIC80 (Aspergillus niger [11]): 5 µM (≈ 5.51 µg/mL)
MFC (Aspergillus terreus [12]): > 10 µM
MIC80 (Aspergillus terreus [12]): 2.5 µM (≈ 2.75 µg/mL)
MFC (Curvularia lunata [13]): 1.3 µM (≈ 1.43 µg/mL)
MIC80 (Curvularia lunata [13]): 0.6 µM (≈ 0.661 µg/mL)
MFC (Rhizopus arrhizus [14]): > 10 µM
MIC80 (Rhizopus arrhizus [14]): > 10 µM
MFC (Mucor circinelloides [15]): > 10 µM
MIC80 (Mucor circinelloides [15]): > 10 µM
MFC (Fusarium solani [16]): > 10 µM
MIC80 (Fusarium solani [16]): 5 µM (≈ 5.51 µg/mL)
MFC (Paecilomyces lilacinus [17]): > 10 µM
MIC80 (Paecilomyces lilacinus [17]): 5 µM (≈ 5.51 µg/mL)
MFC (Hamigera insecticola [18]): > 10 µM
MIC80 (Hamigera insecticola [18]): 0.6 µM (≈ 0.661 µg/mL)
MFC<=99.9 (Candida albicans [19]): 0.6 µM (≈ 0.661 µg/mL)
MFC<=99.9 (Candida albicans [20]): 2.5 µM (≈ 2.75 µg/mL)
MFC<=99.9 (Candida parapsilosis [21]): 2.5 µM (≈ 2.75 µg/mL)
MFC<=99.9 (Candida tropicalis [22]): 0.6 µM (≈ 0.661 µg/mL)
MFC<=99.9 (Pichia kudriavzevii [23]): 2.5 µM (≈ 2.75 µg/mL)
MFC<=99.9 (Cryptococcus neoformans [24]): 2.5 µM (≈ 2.75 µg/mL)
MFC<=99.9 (Aspergillus fumigatus [25]): >10 µM
MFC<=99.9 (Aspergillus fumigatus [26]): >10 µM
MFC<=99.9 (Aspergillus fumigatus [27]): >10 µM
MFC<=99.9 (Aspergillus flavus [28]): >10 µM
MFC<=99.9 (Aspergillus niger [29]): >10 µM
MFC<=99.9 (Aspergillus terreus [30]): >10 µM
MFC<=99.9 (Curvularia lunata [31]): 1.3 µM (≈ 1.43 µg/mL)
MFC<=99.9 (Rhizopus arrhizus [32]): >10 µM
MFC<=99.9 (Mucor circinelloides [33]): >10 µM
MFC<=99.9 (Fusarium solani [34]): >10 µM
MFC<=99.9 (Paecilomyces lilacinus [35]): >10 µM
MFC<=99.9 (Hamigera insecticola [36]): >10 µM
